Consider 2 molecules from US11952384B2, “Anti-tumor compound and preparation method and use thereof” (DUALITY BIOLOGICS (SUZHOU) CO., LTD., priority 2020, dated 2024).

Where two headings read alike, the source gives them in different places.

The target of data set [1] is T1, BCRP (Homo sapiens, UniProt Q9UNQ0).
T1 sequence (Q9UNQ0 1-655): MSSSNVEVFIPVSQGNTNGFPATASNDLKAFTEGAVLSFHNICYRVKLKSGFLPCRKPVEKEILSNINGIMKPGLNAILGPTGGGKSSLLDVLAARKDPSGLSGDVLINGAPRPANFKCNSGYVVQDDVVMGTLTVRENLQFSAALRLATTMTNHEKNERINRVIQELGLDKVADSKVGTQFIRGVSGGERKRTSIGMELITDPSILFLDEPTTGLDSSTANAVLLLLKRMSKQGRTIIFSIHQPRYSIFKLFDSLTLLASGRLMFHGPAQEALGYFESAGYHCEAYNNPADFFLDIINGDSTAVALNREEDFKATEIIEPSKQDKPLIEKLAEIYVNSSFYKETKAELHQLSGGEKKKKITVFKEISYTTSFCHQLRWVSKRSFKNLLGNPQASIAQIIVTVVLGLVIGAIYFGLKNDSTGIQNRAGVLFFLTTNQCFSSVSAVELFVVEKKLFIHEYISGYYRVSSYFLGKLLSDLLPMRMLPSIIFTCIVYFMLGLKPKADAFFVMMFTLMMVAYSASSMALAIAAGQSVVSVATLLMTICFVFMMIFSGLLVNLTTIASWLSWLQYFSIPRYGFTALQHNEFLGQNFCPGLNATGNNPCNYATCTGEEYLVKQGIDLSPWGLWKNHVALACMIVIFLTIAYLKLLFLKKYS
The experiment in a line: in vitro.
Procedure: (§5) To investigate whether the compounds of the present invention is a substrate for efflux transporters P-gp and BCRP in a Caco-2 cell model, thereby providing preclinical basis for analyzing the drug-drug interaction in pharmacokinetics.
(§6) • 1) Cell culture medium was added to each well of the Transwell. The HTS Transwell plate was incubated under conditions of 37° C. and 5% CO2 for 1 h prior to cell inoculation. • 2) Caco-2 cells were diluted with culture medium and the cell suspension was dispensed into filter wells of the 96-well HTS Transwell plate. […] The cell culture medium was changed periodically. • 3) Monolayer cell resistance was measured using the Millicell Epithelial Volt-Ohm detection system. The resistance of each well was recorded. After all wells were measured, the Transwell plate was put back into the incubator. TEER of each well was calculated according to the formula. The TEER value of each well should be greater than 230 ohm·cm^2. […] Preparation for Transporter Test • 1) The Caco-2 plate was taken out from the incubator. The monolayer cells were washed with pre-heated HBSS twice. The plate was then incubated at 37° C. for 30 min. • 2) Stock solutions of the compounds were prepared in DMSO and diluted with HBSS to obtain working solutions. Digoxin was used as a reference substrate for P-gp and rosuvastatin was used as a reference substrate for BCRP. Propranolol was used as a high permeability marker. • 3) The working solution (without inhibitor) was added to the Transwell insert (apical compartment) to determine the rate of drug transport in the apical to basolateral direction. The transfer buffer was added to the wells in the receiver plate (basolateral compartment). The working solution (without inhibitor) was added to the receiver plate wells (basolateral compartment) to determine the rate of drug transport in the basolateral to apical direction. The Transwell insert (apical compartment) was filled with the transport buffer. PSC833 was added to the apical and basolateral compartments to determine the rate of drug transport in the presence of P-gp inhibitors. • 4) The sample was transferred from the working solution to the quenching solution, and a sample with a time of 0 was prepared. The Transwell plate was incubated under conditions of 37° C. and 5% CO2 for 2 h. • 5) At the end of the transport cycle, the samples were transferred from the apical and basolateral wells into a new 96-well plate. Cold acetonitrile or methanol containing the appropriate internal standard (IS) was added to each well of the plate. The plate was vortexed for 10 min. The samples were centrifuged. The supernatant of an aliquot was mixed with an appropriate amount of ultrapure water (depending on the LC-MS/MS signal response and peak shape) prior to the LC-MS/MS analysis. • 6) The stock solution of lucifer yellow in DMSO was prepared and diluted with HBSS to determine the amount of lucifer yellow leakage after a 2-hour transport period. The lucifer yellow solution was added to the apical compartment. HBSS was added to the basolateral compartment. The plate was incubated at 37° C. for 30 min, and a certain amount of the solution was directly taken from the apical and basolateral wells and transferred to a new 96-well plate. The lucifer yellow fluorescence was measured in a fluorescence plate reader with 485 nm excitation and 530 nm emission (to monitor monolayer integrity).
(§7) Data were calculated using Microsoft Excel. The percentage of the compound remaining at each time point was estimated by determining the peak area ratio from the extracted ion chromatogram.
(§8) For drug transport analysis in the Caco-2 cell model, the apparent permeability coefficient (Papp) can be calculated according to the following formula, in cm/s:
(§9) [formula] • wherein the concentration C is in nM, the volume V is in μL, the time T is in s, and the area S is in cm^2.
(§10) The recovery rate is calculated according to the following formula:

Data set [2] has as its target T2, P-gp (Homo sapiens, UniProt P08183).
T2 construct: endogenous in cells; host or cells: Caco-2
The experiment in a line: Study on transporter substrates in Caco-2 cell model. In kind it is in vitro ADME. The following applies: Caco-2. As for the experimental part: The resistance of each well was recorded. […] 2. […] The plate was vortexed for 10 min. The samples were centrifuged. […] HBSS was added to the basolateral compartment. […] 3. Data Analysis
Data were calculated using Microsoft Excel.

The target of data set [3] is T1, BCRP. Described as above. The following applies: human, Caco-2.
Procedure: as §5, §6, §7, §8, §9, §10
In data set [4] the test system is NCI-N87 cells. The experiment in a line: Inhibition of in vitro proliferation of tumor cells by compounds (CTG, 6 days). The data set is classed as cell-based. The following applies: small molecule fragments, 6 days of culture, CTG, read-out: NCI-N87 IC50. As for the experimental part:
(§1) To test the inhibitory activity of the pharmaceutical compounds on the in vitro proliferation of NCI-N87, JIMT-1 and MBA-MB-231 tumor cells. The cells were treated with the compounds at different concentrations in vitro, and after 6 days of culture, the proliferation of cells was detected using the CTG (CellTiter-Glo® Luminescent Cell Viability Assay, Promega, Cat. No. G7558) reagent, and the in vitro activity of the compounds was evaluated according to the IC50 value.
(§2) In the following, the test for the inhibition of the in vitro proliferation of NCI-N87 cells was taken as an example to illustrate the method of the present application for testing the inhibitory activity of the compounds of the present application on the in vitro proliferation of tumor cells. The method was also applicable to, but not limited to, the test for the inhibitory activity on the in vitro proliferation of other tumor cells. • 1. Culturing of cells: NCI-N87 cells were cultured in RPMI-1640 medium containing 10% FBS. • 2. Preparation of cells: NCI-N87 cells in logarithmic phase were taken, washed with PBS once, and digested with 2-3 mL of trypsin for 2-3 min. After the cells were digested completely, 10-15 mL of cell culture was added to elute the digested cells. The eluate was centrifuged at 1000 rpm for 5 min, and the supernatant was discarded. The resulting cells were resuspended in 10-20 mL of cell culture to obtain a single cell suspension. • 3. Cell plating: the NCI-N87 single cell suspension was mixed well and adjusted to a viable cell density of 6×10^4 cells/mL with cell culture. The cell suspension with the adjusted density was mixed well and added to a 96-well cell culture plate at 50 μL/well. The culture plate was incubated in an incubator for 18 h (37° C., 5% CO2). • 4. Preparation of compounds: the compounds were dissolved in DMSO to obtain stock solutions at an initial concentration of 10 mM. There were 8 concentrations in total for the small molecule compounds: 300 nM, 100 nM, 30 nM, 10 nM, 3 nM, 1 nM, 0.3 nM, and 0.1 nM. • 5. Sample adding: the prepared samples to be detected at different concentrations were added to the culture plate, and two duplicate wells were set for each sample. The culture plate was incubated in an incubator for 6 days (37° C., 5% CO2). • 6. Color developing: the 96-well cell culture plate was taken out, added with the CTG reagent at 50 μL/well, and incubated at room temperature for 10 min. • 7. Plate reading: the 96-well cell culture plate was taken out, placed in a microplate reader, and measured for the chemiluminescence using the microplate reader. Data Analysis
(§3) Data were processed and analyzed using Microsoft Excel and Graphpad Prism 5.
(§4) To test the inhibitory activity of the pharmaceutical compounds on the in vitro proliferation of NCI-N87, JIMT-1 and MBA-MB-231 tumor cells. The cells were treated with compounds at different concentrations in vitro, and after 6 days of culture, the proliferation of cells was detected using CTG (CellTiter-Glo® Luminescent Cell Viability Assay, Promega, Cat. No. G7558) reagents, and the in vitro activity of the compounds was evaluated according to the IC50 value. • 1. Culturing of cells: NCI-N87/JIMT-1/MBA-MB-231 cells were cultured in RPMI-1640 medium containing 10% FBS. • 2. Preparation of cells: NCI-N87/JIMT-1/MBA-MB-231 cells in logarithmic phase were taken, washed with PBS once, and digested with 2-3 mL of trypsin for 2-3 min. After the cells were digested completely, 10-15 mL of cell culture was added to elute the digested cells. The eluate was centrifuged at 1000 rpm for 5 min, and the supernatant was discarded. The resulting cells were resuspended in 10-20 mL of cell culture to obtain a single cell suspension. • 3. Cell plating: the NCI-N87/JIMT-1/MBA-MB-231 single cell suspension was mixed well and adjusted to a viable cell density of 6×10^4 cells/mL with cell culture. […]

The test system of data set [5] is JIMT-1 cells. The data set is described as above. In kind it is cell-based. The following applies: Table 1, Test Example 2.1, small molecule fragments, 6 days of culture, CTG, read-out: JIMT-1 IC50. On the procedure:
as §1, §2, §3, §4

Data set [6] addresses T1, BCRP. Particulars: Caco-2.
Procedure: as §5, §6, §7, §8, §9, §10
In data set [7] the test system is Colo205 cells. The experiment in a line: Inhibition of in vitro proliferation of tumor cells by compounds (CTG, 6 days). The following applies: Homo sapiens, COLO 205, 144 h, Table 4, Test Example 2.4, small molecule fragments, 6 days of culture. The data set is classed as cell-based. As for the experimental part:
To test the inhibitory activity of the pharmaceutical compounds on the in vitro proliferation of NCI-N87 and Colo205 tumor cells. The cells were treated with compounds at different concentrations in vitro, and after 6 days of culture, the proliferation of cells was detected using CTG (CellTiter-Glo® Luminescent Cell Viability Assay, Promega, Cat. No. G7558) reagents, and the in vitro activity of the compounds was evaluated according to the IC50 value. • 1. Culturing of cells: NCI-N87/Colo205 cells were cultured in RPMI-1640 medium containing 10% FBS. • 2. Preparation of cells: NCI-N87/Colo205 cells in logarithmic phase were taken, washed with PBS once, and digested with 2-3 mL of trypsin for 2-3 min. After the cells were digested completely, 10-15 mL of cell culture was added to elute the digested cells. The eluate was centrifuged at 1000 rpm for 5 min, and the supernatant was discarded. […] Sample adding: the prepared samples to be detected at different concentrations were added to the culture plate, and two duplicate wells were set for each sample. […] Plate reading: the 96-well cell culture plate was taken out, placed in a microplate reader, and measured for the chemiluminescence using the microplate reader. Data analysis: data were processed and analyzed using Microsoft Excel and Graphpad Prism 5.

In data set [8] the test system is MDA-MB-231 cells. The data set is described as above. The data set is classed as cell-based. Particulars: Homo sapiens, MDA-MB-231, 144 h, Table 3, Test Example 2.3; small molecule fragments; 6 days of culture, CTG; read-out: MDA-MB-231 IC50. As for the experimental part:
To test the inhibitory activity of the pharmaceutical compounds on the in vitro proliferation of NCI-N87, JIMT-1 and MBA-MB-231 tumor cells. The cells were treated with compounds at different concentrations in vitro, and after 6 days of culture, the proliferation of cells was detected using CTG (CellTiter-Glo® Luminescent Cell Viability Assay, Promega, Cat. No. G7558) reagents, and the in vitro activity of the compounds was evaluated according to the IC50 value. • 1. Culturing of cells: NCI-N87/JIMT-1/MBA-MB-231 cells were cultured in RPMI-1640 medium containing 10% FBS. • 2. Preparation of cells: NCI-N87/JIMT-1/MBA-MB-231 cells in logarithmic phase were taken, washed with PBS once, and digested with 2-3 mL of trypsin for 2-3 min. After the cells were digested completely, 10-15 mL of cell culture was added to elute the digested cells. The eluate was centrifuged at 1000 rpm for 5 min, and the supernatant was discarded. The resulting cells were resuspended in 10-20 mL of cell culture to obtain a single cell suspension. • 3. Cell plating: the NCI-N87/JIMT-1/MBA-MB-231 single cell suspension was mixed well and adjusted to a viable cell density of 6×10^4 cells/mL with cell culture. The cell suspension with the adjusted density was mixed well and added to a 96-well cell culture plate at 50 μL/well. The culture plate was incubated in an incubator for 18 h (37° C., 5% CO2). • 4. Preparation of compounds: the compounds were dissolved in DMSO to obtain stock solutions at an initial concentration of 10 mM. There were 8 concentrations in total for the small molecule compounds: 300 nM, 100 nM, 30 nM, 10 nM, 3 nM, 1 nM, 0.3 nM, and 0.1 nM. • 5. Sample adding: the prepared samples to be detected at different concentrations were added to the culture plate, and two duplicate wells were set for each sample. The culture plate was incubated in an incubator for 6 days (37° C., 5% CO2). • 6. Color developing: the 96-well cell culture plate was taken out, added with the CTG reagent at 50 μL/well, and incubated at room temperature for 10 min. • 7. Plate reading: the 96-well cell culture plate was taken out, placed in a microplate reader, and measured for the chemiluminescence using the microplate reader. Data analysis: data were processed and analyzed using Microsoft Excel and Graphpad Prism 5.

T2 sequence (P08183 whole entry): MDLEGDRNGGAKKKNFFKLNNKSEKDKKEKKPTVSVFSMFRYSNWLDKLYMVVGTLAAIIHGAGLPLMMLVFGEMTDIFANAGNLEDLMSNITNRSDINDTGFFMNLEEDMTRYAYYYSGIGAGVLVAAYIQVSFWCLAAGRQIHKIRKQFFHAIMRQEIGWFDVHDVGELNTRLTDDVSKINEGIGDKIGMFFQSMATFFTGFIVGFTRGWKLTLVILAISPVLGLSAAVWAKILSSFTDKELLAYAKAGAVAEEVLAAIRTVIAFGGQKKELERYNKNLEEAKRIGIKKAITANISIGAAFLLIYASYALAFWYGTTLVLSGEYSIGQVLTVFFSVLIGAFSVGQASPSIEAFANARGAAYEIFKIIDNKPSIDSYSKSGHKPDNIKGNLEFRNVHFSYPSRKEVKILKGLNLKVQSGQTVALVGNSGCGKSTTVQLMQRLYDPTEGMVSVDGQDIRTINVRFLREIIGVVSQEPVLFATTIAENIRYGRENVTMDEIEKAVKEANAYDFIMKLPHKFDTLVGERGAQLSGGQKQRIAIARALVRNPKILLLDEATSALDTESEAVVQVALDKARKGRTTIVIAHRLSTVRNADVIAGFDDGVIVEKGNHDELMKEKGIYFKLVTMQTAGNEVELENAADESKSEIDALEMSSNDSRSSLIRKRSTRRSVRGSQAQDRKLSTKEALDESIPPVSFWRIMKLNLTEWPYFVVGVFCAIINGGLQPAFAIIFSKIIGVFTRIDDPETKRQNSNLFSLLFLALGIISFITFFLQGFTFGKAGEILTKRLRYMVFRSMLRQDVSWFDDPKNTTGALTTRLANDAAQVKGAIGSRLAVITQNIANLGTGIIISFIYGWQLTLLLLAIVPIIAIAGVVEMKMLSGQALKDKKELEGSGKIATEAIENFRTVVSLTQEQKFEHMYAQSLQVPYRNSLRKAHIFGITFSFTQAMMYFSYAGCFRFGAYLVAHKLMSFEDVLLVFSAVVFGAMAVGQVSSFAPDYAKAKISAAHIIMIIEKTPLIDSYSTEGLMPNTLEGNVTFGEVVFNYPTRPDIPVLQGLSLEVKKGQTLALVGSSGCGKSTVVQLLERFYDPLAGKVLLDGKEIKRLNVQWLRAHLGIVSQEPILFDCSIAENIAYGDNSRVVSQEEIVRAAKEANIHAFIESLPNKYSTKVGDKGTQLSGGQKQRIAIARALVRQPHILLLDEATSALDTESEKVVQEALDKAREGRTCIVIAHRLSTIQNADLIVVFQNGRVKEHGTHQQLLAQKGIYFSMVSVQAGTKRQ

Turning to `CC[C@@]1(O)C(=O)OCc2c1cc1n(c2=O)Cc2c-1nc1cc(F)c(C)c3c1c2[C@@H](N1CCC(O)C1=O)CC3` (some centres unmarked) [P-I-1], in data set [1] (Caco-2, Papp (A-B) (10^−6, cm/s)), the apparent permeability from apical to basolateral (Papp A→B) at 2 h was 0.13 ×10⁻⁶ cm/s. Besides, in data set [1] (Caco-2, Papp (B-A) (10^−6, cm/s)), the Papp B→A at 2 h came to 4.06 ×10⁻⁶ cm/s. Further, the P-gp substrate result in data set [2] was “neither transporter P-gp substrates nor transporter BCRP substrates”. Besides, in data set [3] (Caco-2, Efflux ratio, KO143 −), the efflux ratio at 2 h was found to be 32.4. In addition, the recovery at 2 h in data set [3] (Caco-2, Recovery rate (%) AP-BL, KO143 −) came out at 80.5%; in data set [3] (Caco-2, Recovery rate (%) BL-AP, KO143 −) it was 76.1%; in data set [3] (Caco-2, with KO143 (concentration not stated), Recovery rate (%) AP-BL, KO143 +) it was 81.5%; in data set [3] (Caco-2, with KO143 (concentration not stated), Recovery rate (%) BL-AP, KO143 +) it was 80.3%. In addition, the half-inhibitory concentration (IC50) in data set [4] (Homo sapiens, NCI-N87, 144 h, Table 1, Test Example 2.1) is 97.3 nM; in data set [4] (Table 1, Test Example 2.1), 61.6 nM; in data set [5] (Homo sapiens, JIMT-1, 144 h), 23.7 nM; in data set [5], 21.8 nM. Besides, the “Papp (A-B) (10^−6, cm/s)” value in data set [6] is 0.21 10^−6, cm/s. Besides, in data set [6], the “Papp (B-A) (10^−6, cm/s)” value is recorded as 4.94 10^−6, cm/s.
Consider `CC[C@@]1(O)C(=O)OCc2c1cc1n(c2=O)Cc2c-1nc1cc(F)c(C)c3c1c2[C@@H](NC(=O)C[C@H](C)O)CC3` [P-III-30, (S)-N-((1S,9S)-9-ethyl-5-fluoro-9-hydroxy-4-methyl-10,13-dioxo-2,3,9,10,13,15-hexahydro-1H,12H-benzo[de]pyrano[3′,4′:6,7]indolizino[1,2-b]quinolin-1-yl)-3-hydroxybutanamide], for which the IC50 worked out at 9 nM in data set [7]; 3 nM in data set [4] (Homo sapiens, NCI-N87, 144 h, Table 4, Test Example 2.4); 28.5 nM in data set [8].
